Experimental findings from PMC10065799, “High-throughput profiling of sequence recognition by tyrosine kinases and SH2 domains using bacterial peptide display” (eLife, 2023) are described below.

One test deals with Fer kinase domain. Description: pTyr-Var library bacterial peptide display kinase screen (enrichment scores). The following applies: sheet "Fer"; value of the variant peptide against its reference peptide in the pTyr-Var library screen with Fer. Format: biochemical, mouse.
Take DISEPYEVFRI [IRF8_Y107_K108E_YF]: the Screen is recorded as 4.437.
Still for that read-out and setting: the value for QNKEDYDGLKE [GSTO1_Y139_A140D] was -0.3459; that for EPSLVYMVTKI [CPS1_Y768_D767V] was 1.098.

The test is the same for the next values; noted with them: sheet "Fer"; variant peptide relative to its reference peptide, pTyr-Var library screen enrichment.
On to DTFDPYLDIAL [USP36_Y268_V271I_YF], for which the Screen is listed as -0.4655.

For the next test, the system named is EPHB1 kinase domain. Described as above. Format: biochemical, human. The following applies: sheet "EPHB1"; variant seq vs reference seq; bacterial peptide display enrichment.
Take RRIHSYRRHLW [VHL_Y112_G114R]: the “Screen (variant relative to reference peptide, measured in the pTyr-Var library screen)” value is -1.158.
In the case of PRIHSYRGHLW [VHL_Y112_R107P], the “Screen (variant relative to reference peptide, measured in the pTyr-Var library screen)” value is recorded as -0.7646.

The test is the same for the next values; noted with them: sheet EPHB1; effect of the variant peptide relative to its reference peptide in the pTyr-Var library screen (enrichment scores).
As to LGSVVYAQSKE [KCNQ2_Y226_H228Q], the Screen is on record as 1.461.
The sequence HRNNNYEPNLF [BRCA2_Y57_K53R] yielded a Screen of -0.3671.
For the sequence LGSWTYPKTVS [ROS1_Y144_T145P], the Screen is listed as -2.133.
Still for that read-out and setting: the value for LAIEWYVVVCK [RHO_Y136_R135W] was 0.5887.
Same read-out and setting: the value for DLDFTYIFPNI [PTEN_Y27_L25F_YF] was -1.115.
The same measure, in the same setting: the value for NRLTDYFELLL [BBS10_Y536_P539L_YF] was -2.013.

A further test has as its target T1, c-Abl kinase domain (Mus musculus, UniProt P00520).
T1 sequence (P00520 242-493 limits assumed): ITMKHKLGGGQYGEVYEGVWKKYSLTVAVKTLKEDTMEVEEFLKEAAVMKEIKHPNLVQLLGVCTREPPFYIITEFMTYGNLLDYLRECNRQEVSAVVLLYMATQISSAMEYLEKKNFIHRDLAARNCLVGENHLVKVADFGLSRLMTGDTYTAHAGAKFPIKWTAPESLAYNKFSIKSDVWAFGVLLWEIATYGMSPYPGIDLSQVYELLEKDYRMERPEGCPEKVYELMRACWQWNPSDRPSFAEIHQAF
The description is as above. Format: biochemical. The following applies: fig5-data2, sheet "Abl"; Screen for the variant/reference peptide pair, pTyr-Var library.
On to GVMLLYFGRFN [ADGRD1_Y85_T82M_YF], for which the Screen worked out at 0.9615.
Still for that read-out and setting: the value for FAANFYKLLGN [ROR2_Y646_D644N_YF] was 1.009.
In turn, FIATQYSLCPR [LBR_Y166_R169C_YF] had a Screen of -1.302.
For the sequence SGADSYEMEED [EGFR_Y316_C311S], the Screen is 1.025.
The same measure, in the same setting: the value for KKLAEYGPQGK [CLCA1_Y147_R152K] was 0.7729; that for LEVETYRRLLD [KRT12_Y429_I426V] was 0.412; that for RQQEVYLLFKQ [RARRES1_Y159_D158V_YF] was 1.344.
The same measure, in the same setting: the value for IGHGSYAKVLL [PRKCZ_Y263_R260H] was 0.1947; that for MIHSAYALGGL [CPS1_Y590_R587H] was -0.66; that for CGTPDYIDPEI [PRKCG_Y521_A523D] was -0.1317.
Still for that read-out and setting: the figure for KRRGPYEMSPS [PLPP7_Y172_T174M] is -0.6744; for HVSISYDIPLT [GAB1_Y307_P311L] it is 1.089; for WQQQSYLDSEI [CTNNB1_Y30_G34E] it is 2.603.
With IPTPAYQSLPA [PDCD6IP_Y727_S730L], the Screen is recorded as -0.8712.
LVQAEYWHDRI [PPT1_Y185_P189R] came in with a Screen of 0.6024.
TEGNGYISFNE [LCP1_Y28_D24E] yielded a Screen of 0.5821.
Same read-out and setting: the figure for EAIAKYDLKAT [GRB2_Y7_F9L] is -1.289; for LVKDPYVMFPQ [PLEKHG2_Y489_P484L] it is 1.829.
Sequence MNLLGYRQVRS [CHST4_Y359_H361Q] showed a Screen of -1.908.
DFFDLYGGEKL [PTPN11_Y66_F71L_YF]: the Screen is reported as -1.348.
On the same count and under the same terms, the figure for FSIDFYRVGGH [NTRK2_Y707_T704I_YF] is -1.897; for SLIDGYFRLTE [JAK2_Y372_A377E_YF] it is -1.303; for DKATEYSQFMR [MAX_Y70_I71S_YF] it is -0.2428.
The sequence CEAVEYLESKQ [BTK_Y511_M509V] yielded a Screen of 1.602.
Still for that read-out and setting: the figure for DRLASYLDKLR [KRT12_Y139_V143L] is 0.402; for ERIEFYELNKK [PMM2_Y145_D148N] it is -0.6166; for KSMFVYCTPNK [ATP2A2_Y497_S495F] it is 1.832.
On the same count and under the same terms, the figure for KRGIDYILWHM [FRMD1_Y225_R228W] is 2.918; for RVFIKYLPEWT [PSEN1_Y240_L235R] it is 0.4533; for IMVFVYCRVFQ [ADRB2_Y219_S220C] it is 1.764.
Turning to LLQAEYWHDPI [PPT1_Y185_V181L], the Screen is given as 0.8908.
Sequence FLAVGYHKPRI [IDS_Y225_H229R] showed a Screen of -0.1841.
On to RFGRKYKKVRF [F8_Y442_I438F], for which the Screen is -0.368.
Still for that read-out and setting: the figure for FQRITYHNWRH [PDE6B_Y556_R552Q_YF] is 0.8312.

The same test, now with this note: sheet "Abl"; effect of variant peptide relative to its reference peptide in pTyr-Var library screen (enrichment).
For the sequence IEPCIYIPEDD [XPNPEP3_Y455_G453C], the Screen is on record as -2.393.
KDQPDYKFQPR [SOX9_Y172_H169Q_YF] came in with a Screen of -0.1662.
TENAGYFFRIS [TTN_Y31721_V31725I_YF] showed a Screen of -1.38.
Same read-out and setting: the figure for ERRLIYASDPK [VPS13D_Y864_T865A] is -3.237.
Still for that read-out and setting: the figure for KMKGDYFRSLA [YWHAG_Y130_Y133S_YF] is -4.108.
The same measure, in the same setting: the value for RLGDLYKEEMR [VIM_Y150_E151K] was 1.898; that for AVDDKYSRREE [SART1_Y685_I681V] was 0.5221.

In a further test the target is c-Src kinase domain (Homo sapiens, UniProt P12931). Described as above. Format: biochemical. The following applies: pTyr-Var library screen with c-Src; sheet "Src substrates": annotated Src substrate sites, 11-residue peptide SITE_+/-5_AA; mean.
For the sequence EALDFYGEVRT, the “Enrichment score (mean)” value is 1.015.

The same test, now with this note: sheet "Src"; effect of the variant peptide relative to its reference peptide in the pTyr-Var library screen.
Turning to DISEPYEVFRI [IRF8_Y107_K108E_YF], the Screen is reported as 2.852.
In turn, VITTLYIGFLG [KCNQ1_Y267_L262V] displayed a Screen of -0.844.
Still for that read-out and setting: the figure for FQKNIYSEEPR [LMNA_Y211_L215P] is -0.2654; for FKEIVYAVSSD [DCX_Y70_G67E] it is 2.95; for DCAAIYGNEPD [AKR1A1_Y50_E55D] it is 0.2268.
The same measure, in the same setting: the figure for PFAEPYADFGG [APBA1_Y187_S184A_YF] is -0.451; for LITILYIGFLG [KCNQ1_Y267_T265I] it is -1.468.
The sequence IPGGIYNADLN [CST4_Y35_D36N] returned a Screen of -0.256.
On the same count and under the same terms, the figure for RKPDIYGRLAS [MCM4_Y459_E460G] is 0.1835.
Turning to RMDGKYACSFT [FLNB_Y704_T703K_YF], the Screen is listed as -2.226.
In turn, KVALVYGQMNQ [ATP5F1B_Y269_E274Q] came in with a Screen of 0.6915.
Same read-out and setting: the figure for CEETFYTMKMN [MASP2_Y401_V405M] is 0.9168.

The test is the same for the next values; noted with them: sheet "Src"; variant peptide versus its reference peptide in the pTyr-Var library screen.
In turn, PLQNTYNFNVL [SLC4A1_Y553_K551N_YF] returned a Screen of 2.669.
Sequence IDSTPYGQWFE [RPS8_Y109_R110G_YF] came in with a Screen of 3.305.
Take MVSLFYGTAIF [OR10C1_Y251_L255I]: the Screen was -0.3478.
In turn, PLDGEYFTLHI [TP53_Y327_Q331H] yielded a Screen of -0.3825.
The same measure, in the same setting: the value for LITLVYGCSRQ [TMPRSS6_Y290_S288L] was -0.7056.
SVTCPYSPALN [TP53_Y126_T125P]: the Screen is 1.73.
Take PLDGEYFTLRI [TP53_Y327_Q331R]: the Screen is -0.2935.
Still for that read-out and setting: the figure for QGCGIYKDFFR [PLA2G2D_Y82_S80G_YF] is -0.1018; for LVKDPYVMFPQ [PLEKHG2_Y489_P484L] it is 0.6915.
On the same count and under the same terms, the figure for DFFDLYGGEKL [PTPN11_Y66_F71L_YF] is 0.4429; for RRIHSYRRHLW [VHL_Y112_G114R] it is -2.73; for DLDFTYIFPNI [PTEN_Y27_L25F_YF] it is -0.8557.
Turning to RGDVIYKGFED [NFU1_Y194_G189R], the Screen is recorded as -0.4435.
Still for that read-out and setting: the value for KMKGDYFRSLA [YWHAG_Y130_Y133S_YF] was -2.206; that for SDVDLYQVRIA [PSMD9_Y70_T74I] was 0.1663.
Same read-out and setting: the figure for LRFDSYWSFCN [SLC20A2_Y433_S434W_YF] is 2.108.
Consider SILAVYSKDIF [PANK2_Y400_N404I_YF], for which the Screen is -0.2771.
With PRIHSYRGHLW [VHL_Y112_R107P], the Screen is recorded as -2.322.
Still for that read-out and setting: the figure for DFCDLYGGEKF [PTPN11_Y66_Y63C_YF] is -0.008516; for HDRNTYEKFLE [TF_Y666_G671E_YF] it is -1.841.
